Laboratory results published in the NIST ThermoML archive (doi:10.1021/acs.jced.9b00525).
Numbers after ± are expanded uncertainties.

Conditions: Surface laser light scattering (SLLS); for viscosity: Liquid

SMILES	surface tension liquid-gas (293.15 K) [mN/m]	viscosity (293.15 K) [mPa·s]	surface tension liquid-gas (303.15 K) [mN/m]	viscosity (303.15 K) [mPa·s]	surface tension liquid-gas (313.15 K) [mN/m]	viscosity (313.15 K) [mPa·s]	surface tension liquid-gas (323.15 K) [mN/m]	viscosity (323.15 K) [mPa·s]	surface tension liquid-gas (348.15 K) [mN/m]	viscosity (348.15 K) [mPa·s]	surface tension liquid-gas (373.15 K) [mN/m]	viscosity (373.15 K) [mPa·s]	surface tension liquid-gas (398.15 K) [mN/m]	viscosity (398.15 K) [mPa·s]	surface tension liquid-gas (423.15 K) [mN/m]	viscosity (423.15 K) [mPa·s]	surface tension liquid-gas (448.15 K) [mN/m]	viscosity (448.15 K) [mPa·s]	surface tension liquid-gas (473.15 K) [mN/m]	viscosity (473.15 K) [mPa·s]	further results
CCCCCCCCCC [decane]	23.05 ± 0.57	0.9005 ± 0.029	22.39 ± 0.48	0.79 ± 0.026	21.43 ± 0.46	0.6924 ± 0.025	20.61 ± 0.44	0.6091 ± 0.022	18.75 ± 0.39	0.4636 ± 0.019	16.52 ± 0.36	0.3614 ± 0.016	14.38 ± 0.31	0.2895 ± 0.015	12.4 ± 0.32	0.2403 ± 0.013	10.29 ± 0.22	0.1978 ± 0.012	8.52 ± 0.23	0.1677 ± 0.012	surface tension liquid-gas (283.15 K): 23.94 ± 0.52 mN/m; viscosity (283.15 K): 1.077 ± 0.035 mPa·s; surface tension liquid-gas (498.15 K): 6.58 ± 0.16 mN/m; viscosity (498.15 K): 0.1366 ± 0.011 mPa·s; surface tension liquid-gas (523.15 K): 4.97 ± 0.12 mN/m; viscosity (523.15 K): 0.1138 ± 0.01 mPa·s; surface tension liquid-gas (548.15 K): 3.43 ± 0.1 mN/m; viscosity (548.15 K): 0.0974 ± 0.01 mPa·s; surface tension liquid-gas (573.15 K): 1.94 ± 0.09 mN/m; viscosity (573.15 K): 0.0762 ± 0.0098 mPa·s
CCCCCCCCCCCCCCCC [hexadecane]	27.38 ± 0.64	3.486 ± 0.1	26.6 ± 0.7	2.772 ± 0.095	25.56 ± 0.31	2.261 ± 0.081	24.28 ± 0.41	1.84 ± 0.061	22.19 ± 0.31	1.236 ± 0.047	20.31 ± 0.23	0.8927 ± 0.03	18.54 ± 0.14	0.6788 ± 0.024	16.69 ± 0.25	0.5351 ± 0.02	15.09 ± 0.14	0.4256 ± 0.018	13.26 ± 0.21	0.344 ± 0.016	surface tension liquid-gas (498.15 K): 11.46 ± 0.19 mN/m; viscosity (498.15 K): 0.2862 ± 0.015 mPa·s; surface tension liquid-gas (523.15 K): 9.72 ± 0.28 mN/m; viscosity (523.15 K): 0.236 ± 0.013 mPa·s; surface tension liquid-gas (548.15 K): 8.25 ± 0.22 mN/m; viscosity (548.15 K): 0.1937 ± 0.013 mPa·s; surface tension liquid-gas (573.15 K): 7 ± 0.29 mN/m; viscosity (573.15 K): 0.1705 ± 0.012 mPa·s
CCCCCC [hexane]	18.22 ± 0.17	0.3127 ± 0.015	17.34 ± 0.19	0.2809 ± 0.014	16.22 ± 0.21	0.2546 ± 0.014	15.31 ± 0.14	0.234 ± 0.013	12.94 ± 0.12	0.1905 ± 0.012	10.53 ± 0.1	0.155 ± 0.011	8.21 ± 0.08	0.1268 ± 0.011	5.98 ± 0.06	0.1026 ± 0.01	3.75 ± 0.07	0.0837 ± 0.0097	1.89 ± 0.03	0.0655 ± 0.0093	surface tension liquid-gas (283.15 K): 19.28 ± 0.22 mN/m; viscosity (283.15 K): 0.3495 ± 0.016 mPa·s
CCCCCCCC [octane]	21.31 ± 0.24	0.5523 ± 0.021	20.53 ± 0.23	0.4828 ± 0.019	19.45 ± 0.22	0.432 ± 0.018	18.64 ± 0.21	0.387 ± 0.017	16.37 ± 0.21	0.3079 ± 0.015	14 ± 0.14	0.2487 ± 0.014	11.9 ± 0.12	0.2028 ± 0.013	9.81 ± 0.15	0.1665 ± 0.012	7.88 ± 0.07	0.1393 ± 0.011	5.82 ± 0.1	0.1168 ± 0.01	surface tension liquid-gas (283.15 K): 22.25 ± 0.19 mN/m; viscosity (283.15 K): 0.6247 ± 0.023 mPa·s; surface tension liquid-gas (498.15 K): 4 ± 0.13 mN/m; viscosity (498.15 K): 0.0947 ± 0.01 mPa·s; surface tension liquid-gas (523.15 K): 2.32 ± 0.06 mN/m; viscosity (523.15 K): 0.0755 ± 0.0095 mPa·s
